Assays:
[1] = molecular target: T1, Bromodomain-containing protein 4 (Homo sapiens, UniProt O60885); experiment: Binding affinity to human BRD4 assessed as change in melting temperature at 10 uM by differential scanning fluorimetry
Peregrin (Homo sapiens) = molecular target: T2, Peregrin (Homo sapiens) (UniProt P55201); experiment: Binding affinity to human BRPF1B assessed as change in melting temperature at 10 uM by differential scanning fluorimetry
T2 sequence (whole entry): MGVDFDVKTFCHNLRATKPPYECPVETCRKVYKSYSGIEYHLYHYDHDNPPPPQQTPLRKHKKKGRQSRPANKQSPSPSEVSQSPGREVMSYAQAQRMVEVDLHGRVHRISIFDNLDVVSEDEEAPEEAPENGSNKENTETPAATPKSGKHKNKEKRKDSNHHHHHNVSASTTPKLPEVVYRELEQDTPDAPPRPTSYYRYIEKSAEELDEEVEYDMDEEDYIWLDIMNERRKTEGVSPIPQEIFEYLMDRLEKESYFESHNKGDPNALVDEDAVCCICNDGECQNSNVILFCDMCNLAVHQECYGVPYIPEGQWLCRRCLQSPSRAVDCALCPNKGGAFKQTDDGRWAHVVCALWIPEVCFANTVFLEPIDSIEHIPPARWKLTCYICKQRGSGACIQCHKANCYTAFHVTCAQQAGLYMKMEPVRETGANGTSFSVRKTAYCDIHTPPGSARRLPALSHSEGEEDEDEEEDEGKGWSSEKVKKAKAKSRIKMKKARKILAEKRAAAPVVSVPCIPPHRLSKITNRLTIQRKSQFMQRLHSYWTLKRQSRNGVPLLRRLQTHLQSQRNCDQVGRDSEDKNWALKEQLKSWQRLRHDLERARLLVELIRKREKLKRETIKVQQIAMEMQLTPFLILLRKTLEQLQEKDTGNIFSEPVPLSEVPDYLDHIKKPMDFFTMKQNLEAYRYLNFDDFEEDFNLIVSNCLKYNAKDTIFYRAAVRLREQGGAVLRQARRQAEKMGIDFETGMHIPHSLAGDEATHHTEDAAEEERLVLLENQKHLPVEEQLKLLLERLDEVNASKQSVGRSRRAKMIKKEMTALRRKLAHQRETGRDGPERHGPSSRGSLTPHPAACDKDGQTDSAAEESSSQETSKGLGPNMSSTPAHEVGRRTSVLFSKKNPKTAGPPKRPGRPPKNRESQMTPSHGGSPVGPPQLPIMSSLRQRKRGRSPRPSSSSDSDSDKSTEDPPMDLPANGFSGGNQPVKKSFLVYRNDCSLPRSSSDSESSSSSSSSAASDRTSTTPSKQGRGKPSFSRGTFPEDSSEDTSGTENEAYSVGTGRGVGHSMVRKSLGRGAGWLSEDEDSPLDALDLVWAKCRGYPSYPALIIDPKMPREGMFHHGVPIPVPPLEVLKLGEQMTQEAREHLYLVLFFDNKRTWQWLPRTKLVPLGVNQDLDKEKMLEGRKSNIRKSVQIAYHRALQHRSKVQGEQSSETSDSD

[2] = molecular target: T3, Bromodomain-containing protein 9 (Homo sapiens, UniProt Q9H8M2); experiment: Inhibition of human BRD9 by alpha screen assay
T3 sequence (Q9H8M2 whole entry): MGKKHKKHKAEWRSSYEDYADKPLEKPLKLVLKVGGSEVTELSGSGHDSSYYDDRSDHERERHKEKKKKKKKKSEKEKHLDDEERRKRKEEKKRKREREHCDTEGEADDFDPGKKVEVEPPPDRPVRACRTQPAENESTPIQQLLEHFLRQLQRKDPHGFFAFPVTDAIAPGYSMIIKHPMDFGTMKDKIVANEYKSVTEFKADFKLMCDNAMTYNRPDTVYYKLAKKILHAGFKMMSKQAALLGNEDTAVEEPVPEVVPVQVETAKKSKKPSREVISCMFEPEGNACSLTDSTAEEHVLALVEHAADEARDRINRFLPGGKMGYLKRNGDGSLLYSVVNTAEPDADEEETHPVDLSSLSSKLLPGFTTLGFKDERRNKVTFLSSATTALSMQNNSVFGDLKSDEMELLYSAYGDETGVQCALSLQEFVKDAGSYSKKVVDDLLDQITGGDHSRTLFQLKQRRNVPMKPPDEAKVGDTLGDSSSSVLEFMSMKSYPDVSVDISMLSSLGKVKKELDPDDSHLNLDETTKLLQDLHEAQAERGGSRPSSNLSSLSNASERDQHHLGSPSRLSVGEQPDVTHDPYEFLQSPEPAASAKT

[3] = molecular target: Bromodomain adjacent to zinc finger domain protein 2B (Homo sapiens, UniProt Q9UIF8); experiment: Inhibition of human BAZ2B by alpha screen assay
Sequence of Bromodomain adjacent to zinc finger domain protein 2B (Q9UIF8 whole entry, the tested form may be a part): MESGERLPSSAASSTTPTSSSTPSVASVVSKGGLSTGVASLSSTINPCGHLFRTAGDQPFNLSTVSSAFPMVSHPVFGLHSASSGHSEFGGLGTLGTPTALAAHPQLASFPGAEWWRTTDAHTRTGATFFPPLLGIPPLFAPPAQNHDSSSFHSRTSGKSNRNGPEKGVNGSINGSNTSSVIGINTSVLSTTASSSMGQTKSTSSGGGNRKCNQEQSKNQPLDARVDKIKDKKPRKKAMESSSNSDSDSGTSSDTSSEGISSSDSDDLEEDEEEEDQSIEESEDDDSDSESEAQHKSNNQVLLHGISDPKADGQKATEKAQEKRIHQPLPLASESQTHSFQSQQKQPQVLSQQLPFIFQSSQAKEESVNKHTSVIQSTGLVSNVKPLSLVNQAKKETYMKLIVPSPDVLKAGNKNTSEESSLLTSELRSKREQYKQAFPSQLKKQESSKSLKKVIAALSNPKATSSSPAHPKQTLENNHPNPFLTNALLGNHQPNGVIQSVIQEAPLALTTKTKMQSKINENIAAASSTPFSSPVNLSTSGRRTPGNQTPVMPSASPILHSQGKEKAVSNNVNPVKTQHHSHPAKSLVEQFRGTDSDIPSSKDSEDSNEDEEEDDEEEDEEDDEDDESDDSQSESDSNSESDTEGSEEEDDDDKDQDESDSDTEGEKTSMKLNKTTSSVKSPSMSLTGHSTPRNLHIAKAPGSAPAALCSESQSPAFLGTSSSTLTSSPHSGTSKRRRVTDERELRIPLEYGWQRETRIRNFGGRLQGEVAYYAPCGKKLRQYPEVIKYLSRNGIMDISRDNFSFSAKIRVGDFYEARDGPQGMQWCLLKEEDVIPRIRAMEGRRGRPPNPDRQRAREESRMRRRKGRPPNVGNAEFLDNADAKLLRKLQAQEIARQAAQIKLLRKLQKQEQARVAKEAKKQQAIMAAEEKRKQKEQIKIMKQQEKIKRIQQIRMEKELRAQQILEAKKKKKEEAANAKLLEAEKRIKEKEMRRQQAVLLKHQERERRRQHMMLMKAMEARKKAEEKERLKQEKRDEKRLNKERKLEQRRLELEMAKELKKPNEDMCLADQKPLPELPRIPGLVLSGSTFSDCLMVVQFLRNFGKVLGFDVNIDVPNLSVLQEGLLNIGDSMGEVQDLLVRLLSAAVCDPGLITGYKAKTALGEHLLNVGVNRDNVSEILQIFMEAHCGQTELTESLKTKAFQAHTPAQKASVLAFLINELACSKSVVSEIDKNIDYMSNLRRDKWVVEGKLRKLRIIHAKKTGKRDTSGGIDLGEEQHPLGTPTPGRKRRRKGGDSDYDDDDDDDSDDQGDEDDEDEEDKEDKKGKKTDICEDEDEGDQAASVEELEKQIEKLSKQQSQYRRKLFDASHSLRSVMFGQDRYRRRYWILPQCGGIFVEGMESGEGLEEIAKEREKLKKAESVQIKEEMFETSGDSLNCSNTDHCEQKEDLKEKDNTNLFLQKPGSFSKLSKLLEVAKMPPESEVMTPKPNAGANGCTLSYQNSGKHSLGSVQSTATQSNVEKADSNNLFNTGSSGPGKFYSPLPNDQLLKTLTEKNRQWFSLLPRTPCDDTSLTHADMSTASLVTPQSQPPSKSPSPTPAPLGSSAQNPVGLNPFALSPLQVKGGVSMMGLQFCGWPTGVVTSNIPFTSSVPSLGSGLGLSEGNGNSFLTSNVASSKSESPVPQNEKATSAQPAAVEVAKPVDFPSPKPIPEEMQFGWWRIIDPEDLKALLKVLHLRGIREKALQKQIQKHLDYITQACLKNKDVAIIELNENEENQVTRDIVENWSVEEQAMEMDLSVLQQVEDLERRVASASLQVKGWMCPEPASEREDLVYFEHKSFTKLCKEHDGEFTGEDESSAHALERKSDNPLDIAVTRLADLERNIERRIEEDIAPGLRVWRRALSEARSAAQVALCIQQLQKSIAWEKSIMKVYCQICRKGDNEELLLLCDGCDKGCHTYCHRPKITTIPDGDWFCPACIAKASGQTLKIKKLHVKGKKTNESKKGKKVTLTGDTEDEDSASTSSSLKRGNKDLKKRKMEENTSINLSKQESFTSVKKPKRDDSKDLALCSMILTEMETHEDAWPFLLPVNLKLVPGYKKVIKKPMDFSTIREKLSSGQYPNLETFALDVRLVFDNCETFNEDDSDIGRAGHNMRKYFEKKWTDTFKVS

[4] = molecular target: T4, Bromodomain-containing protein 9 (Homo sapiens) (UniProt Q9H8M2); experiment: Binding affinity to human BRD9 assessed as change in melting temperature at 10 uM by differential scanning fluorimetry
T4 sequence (whole entry): T3 sequence (Q9H8M2 whole entry)

[5] = molecular target: T1, Bromodomain-containing protein 4; experiment: Inhibition of human BRD4 by alpha screen assay
Peregrin = molecular target: T5, Peregrin (Homo sapiens, UniProt P55201); experiment: Inhibition of human BRPF1B by alpha screen assay
T5 sequence (P55201 whole entry): T2 sequence (whole entry)

| Compound | ΔTm [1] [°C] | ΔTm (Peregrin (Homo sapiens)) [°C] | IC50 [2] [µM] | IC50 [3] [µM] | ΔTm [4] [°C] | IC50 [5] [µM] | IC50 (Peregrin) [µM] |
| --- | --- | --- | --- | --- | --- | --- | --- |
| CC(=O)c1cc(-c2cccc(C)n2)c2cc(N3CCOCC3)ccn12 | 1.2 | 0.65 | 0.501 | 15.8 | 4.2 |  |  |
| CCC(=O)c1cc(-c2cccc3nccn23)c2cc(N3CCN(C)CC3)ccn12 | 0.51 | 0.15 |  |  | 1.2 |  |  |
| CN1CCN(c2ccn3c(C(=O)C(F)(F)F)cc(-c4cccc5nccn45)c3c2)CC1 | -0.7 | 0.26 |  |  | 0.3 |  |  |
| CCCCC(=O)c1cc(-c2cccc3nccn23)c2cc(N3CCN(C)CC3)ccn12 | -0.78 | 0.5 |  |  | 0.27 |  |  |
| CC(=O)c1cc(-c2nc3ccccc3s2)c2cc(N3CCOCC3)ccn12 | 0.55 | 0.04 |  |  | -0.3 |  |  |
| CC(=O)c1cc(-c2ncc(C)cc2F)c2cc(N3CCOCC3)ccn12 | -0.42 | 0.48 |  |  | -0.28 |  |  |
| COc1cccc(-c2cc(C(C)=O)n3ccc(N4CCOCC4)cc23)n1 | 0.82 | 0.53 |  |  | 1.3 |  |  |
| CCCOc1ccn2c(C(C)=O)cc(-c3cccc(Cl)n3)c2c1 | -0.6 | 0.18 |  |  | 0.085 |  |  |
| COC(=O)c1ccnc(-c2cc(C(C)=O)n3ccc(N4CCOCC4)cc23)c1 | 0.075 | 0.04 |  |  | 0.35 |  |  |
| O=C(c1cc(-c2cccc3nccn23)c2cc(N3CCOCC3)ccn12)C(F)(F)F | -0.4 | 0.2 |  |  | 0.26 |  |  |
| CC(=O)c1cc(-c2ncccc2F)c2cc(N3CCOCC3)ccn12 | 0.41 | 0.71 |  |  | 1.3 |  |  |
| CC(=O)c1cc(-c2ccccn2)c2cc(N3CCOCC3)ccn12 | 1.9 | 1.3 | 0.501 | 3.16 | 5.7 |  |  |
| CC(=O)c1cc(-c2cc(C(=O)O)ccn2)c2cc(N3CCOCC3)ccn12 | -0.24 | 0.01 |  |  | -0.06 |  |  |
| CCCOc1ccn2c(C(C)=O)cc(-c3ccccn3)c2c1 | -0.35 | 0.32 | 2.51 | 2.51 | 1.1 |  |  |
| CCCOc1ccn2c(C(C)=O)cc(-c3cc(C(=O)OC)ccn3)c2c1 | -0.24 | 0.09 |  |  | -0.03 |  |  |
| CC(=O)c1cc(-c2cccc(Cl)n2)c2cc(N3CCOCC3)ccn12 | 0.28 | 0.34 |  |  | 0.81 |  |  |
| CC(=O)c1cc(-c2cccc3nccn23)c2cc(N3CCN(C)CC3)ccn12 | 4.1 | 3.5 |  |  | 7.5 | ≤ 1 | ≤ 1 |
| CN1CCN(c2ccn3c(C(=O)C4CC4)cc(-c4cccc5nccn45)c3c2)CC1 | -0.65 | 0.085 |  |  | 0.76 |  |  |
| CCC(=O)c1cc(-c2cccc3nccn23)c2cc(N3CCOCC3)ccn12 | 0.98 | 0.2 |  |  | 3 |  |  |
| CC(C)C(=O)c1cc(-c2cccc3nccn23)c2cc(N3CCN(C)CC3)ccn12 | 0.19 | 0.71 |  |  | 1 |  |  |
| CC(=O)c1cc(-c2ccc(C(F)(F)F)cn2)c2cc(N3CCOCC3)ccn12 | -4 | 2.5 |  |  | -1.1 |  |  |
| CC(=O)c1cc(-c2ccccn2)c2cc(N3CCNCC3)ccn12 | 4 | 1.7 |  |  | 5.7 |  |  |
| CC(=O)c1cc(-c2cccc3nccn23)c2cc(N3CCNCC3)ccn12 | 2.6 | 2.3 |  |  | 5.1 |  |  |
| CC(=O)c1cc(-c2ccc(Cl)cn2)c2cc(N3CCOCC3)ccn12 | -0.39 | 0.22 |  |  | -0.23 |  |  |
| CC(=O)c1cc(-c2ncccn2)c2cc(N3CCOCC3)ccn12 | 0.43 | 0.29 |  |  | 0.035 |  |  |

— ChEMBL document CHEMBL3739345, “Design and synthesis of potent and selective inhibitors of BRD7 and BRD9 bromodomains” (Medchemcomm, 2015)
